{"source": "ChEMBL document CHEMBL5725965", "about": "“Isoxazole derivatives as FXR agonists and methods of use thereof” (2018)", "target": "T1, Bile acid receptor (Homo sapiens, UniProt Q96RI1)", "T1 sequence (Q96RI1 whole entry)": "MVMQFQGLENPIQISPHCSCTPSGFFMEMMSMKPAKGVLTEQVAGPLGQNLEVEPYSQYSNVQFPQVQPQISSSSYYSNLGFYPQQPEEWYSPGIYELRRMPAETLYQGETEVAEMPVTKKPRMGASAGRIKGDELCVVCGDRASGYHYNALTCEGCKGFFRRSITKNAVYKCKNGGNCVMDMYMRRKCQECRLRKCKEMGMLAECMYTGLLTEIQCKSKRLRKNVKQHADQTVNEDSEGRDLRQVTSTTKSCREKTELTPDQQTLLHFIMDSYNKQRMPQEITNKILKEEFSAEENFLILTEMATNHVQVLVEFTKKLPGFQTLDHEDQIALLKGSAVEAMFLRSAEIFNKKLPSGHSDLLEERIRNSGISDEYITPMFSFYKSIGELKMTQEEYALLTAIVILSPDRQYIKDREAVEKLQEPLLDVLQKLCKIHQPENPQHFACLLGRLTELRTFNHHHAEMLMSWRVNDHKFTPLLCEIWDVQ", "assay": "FXR Reporter Assay kit purchased from Indigo Bioscience (Catalogue number: IB00601) to determine the potency and efficacy of compound developed by Enanta that can induce FXR activation. The principle application of this reporter assay system is to quantify functional activity of human FXR. The assay utilizes non-human mammalian cells, CHO (Chinese hamster ovary) cells engineered to express human NR1H4 protein (referred to as FXR). Reporter cells also incorporate the cDNA encoding beetle luciferase which catalyzes the substrates and yields photon emission. Luminescence intensity of the reaction is quantified using a plate-reading luminometer, Envision. Reporter Cells include the luciferase reporter gene functionally linked to an FXR responsive promoter. Thus, quantifying changes in luciferase expression in the treated reporter cells provides a sensitive surrogate measure of the changes in FXR activity. […] The assay is according to the manufacturer's instructions. In brief, the assay was performed in white, 96 well plates using final volume of 100 μl containing cells with different doses of compounds. Retrieve Reporter Cells from −80° C. storage. Perform a rapid thaw of the frozen cells by transferring a 10 ml volume of 37° C. cell recovery medium into the tube of frozen cells. Recap the tube of Reporter Cells and immediately place it in a 37° C. water bath for 5-10 minutes. […]", "assay_type": "cell-based", "note": "pEC50: −log10 of the molar value."}
{"smiles": "CN(C)S(=O)(=O)NC(=O)c1ccc2nc(N3C4CC[C@H]3C[C@H](OCc3c(-c5c(Cl)cccc5Cl)noc3C3CC3)C4)sc2c1", "values": [{"measurement": "pEC50", "result": "> 7.00"}]}
